Assay results published in patent US20230002357A1, “7-PYRIMIDINE-2-YL-OXY-INDAZOLE DERIVATIVES AND THEIR USE AS HERBICIDES” (SYNGENTA CROP PROTECTION AG, priority 2019, published 2023).

What was measured:
Assay type in all cases: in vivo
Details in all cases: 250 g/ha, evaluated after 13 days
Setaria faberi (SETFA) [1] = assay: Pre-emergence Test, glasshouse, SETFA
Summary of the method: (§1)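 Pots were sprayed 1 day after sowing (pre-emergence) or after 8 days' growth (post-emergence) at 250 g/ha, formulated in acetone/water 50:50 with 0.5% Tween 20. Glasshouse conditions were 24/16 °C, 14 h light, 65% humidity. Damage was scored after 13 days on a 1–5 scale (5 = 81–100%).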

IPOHE [2] = assay: Post-emergence Test, glasshouse, IPOHE
Summary of the method: as §1

IPOHE [3] = assay: Pre-emergence Test, glasshouse, IPOHE
Summary of the method: as §1

Setaria faberi (SETFA) [4] = assay: Post-emergence Test, glasshouse, SETFA
Summary of the method: as §1

ABUTH [5] = assay: Pre-emergence Test, glasshouse, ABUTH
Summary of the method: as §1

[6] = tested on: Amaranthus retoflexus (AMARE); assay: Post-emergence Test, glasshouse, AMARE
Summary of the method: as §1

[7] = tested on: Echinochloa crus-galli (ECHCG); assay: Post-emergence Test, glasshouse, ECHCG
Summary of the method: as §1

[8] = tested on: Echinochloa crus-galli (ECHCG); assay: Pre-emergence Test, glasshouse, ECHCG
Summary of the method: as §1

ABUTH [9] = assay: Post-emergence Test, glasshouse, ABUTH
Summary of the method: as §1

[10] = tested on: Amaranthus retoflexus (AMARE); assay: Pre-emergence Test, glasshouse, AMARE
Summary of the method: as §1

Row | SMILES | percentage damage caused to the plant, five-point scale, SETFA (Setaria faberi (SETFA) [1]) | percentage damage caused to the plant, five-point scale, IPOHE (IPOHE [2]) | percentage damage caused to the plant, five-point scale, IPOHE (IPOHE [3]) | percentage damage caused to the plant, five-point scale, SETFA (Setaria faberi (SETFA) [4]) | percentage damage caused to the plant, five-point scale, ABUTH (ABUTH [5]) | percentage damage caused to the plant, five-point scale, AMARE [6] | percentage damage caused to the plant, five-point scale, ECHCG [7] | percentage damage caused to the plant, five-point scale, ECHCG [8] | percentage damage caused to the plant, five-point scale, ABUTH (ABUTH [9]) | percentage damage caused to the plant, five-point scale, AMARE [10]
1 | C=CCCn1nc(Cl)c2cccc(Oc3ncc(Cl)cn3)c21 [Compound 1.054] | 5 (5=81-100%) | 2 (2=21-40%) | 1 (1=0-20%) | 2 (2=21-40%) | 1 (1=0-20%) | 4 (4=61-80%) | 3 (3=41-60%) | 4 (4=61-80%) | 4 (4=61-80%) | 4 (4=61-80%)
2 | CCCCCn1nc(Cl)c2cccc(Oc3ncc(Cl)cn3)c21 [Compound 1.055] | 4 (4=61-80%) | 2 (2=21-40%) | 1 (1=0-20%) | 3 (3=41-60%) | 1 (1=0-20%) | 4 (4=61-80%) | 3 (3=41-60%) | 4 (4=61-80%) | 3 (3=41-60%) | 4 (4=61-80%)
3 | CC(C)CCn1nc(Cl)c2cccc(Oc3ncc(Cl)cn3)c21 [Compound 1.056] | 4 (4=61-80%) | 3 (3=41-60%) | 1 (1=0-20%) | 2 (2=21-40%) | 1 (1=0-20%) | 4 (4=61-80%) | 2 (2=21-40%) | 3 (3=41-60%) | 3 (3=41-60%) | 4 (4=61-80%)
4 | CC(C)Cn1nc(Cl)c2cccc(Oc3ncc(Cl)cn3)c21 [Compound 1.057] | 4 (4=61-80%) | 1 (1=0-20%) | 1 (1=0-20%) | 1 (1=0-20%) | 2 (2=21-40%) | 3 (3=41-60%) | 1 (1=0-20%) | 2 (2=21-40%) | 2 (2=21-40%) | 2 (2=21-40%)
5 | CCCCCCn1nc(Cl)c2cccc(Oc3ncc(Cl)cn3)c21 [Compound 1.058] | 3 (3=41-60%) | 2 (2=21-40%) | 1 (1=0-20%) | 2 (2=21-40%) | 2 (2=21-40%) | 4 (4=61-80%) | 3 (3=41-60%) | 3 (3=41-60%) | 3 (3=41-60%) | 2 (2=21-40%)
6 | C#CCn1nc(Cl)c2cccc(Oc3ncc(Cl)cn3)c21 [Compound 1.059] | 2 (2=21-40%) | 1 (1=0-20%) | 1 (1=0-20%) | 1 (1=0-20%) | 2 (2=21-40%) | 4 (4=61-80%) | 1 (1=0-20%) | 2 (2=21-40%) | 2 (2=21-40%) | 2 (2=21-40%)
7 | COCCCn1nc(Cl)c2cccc(Oc3ncc(Cl)cn3)c21 [Compound 1.060] | 4 (4=61-80%) | 2 (2=21-40%) | 2 (2=21-40%) | 3 (3=41-60%) | 4 (4=61-80%) | 3 (3=41-60%) | 4 (4=61-80%) | 4 (4=61-80%) | 3 (3=41-60%) | 4 (4=61-80%)
8 | CCCn1nc(Cl)c2cccc(Oc3ncc(Cl)cn3)c21 [Compound 1.061] | 5 (5=81-100%) | 2 (2=21-40%) | 1 (1=0-20%) | 2 (2=21-40%) | 1 (1=0-20%) | 4 (4=61-80%) | 2 (2=21-40%) | 4 (4=61-80%) | 2 (2=21-40%) | 3 (3=41-60%)
9 | FCCn1nc(Cl)c2cccc(Oc3ncc(Cl)cn3)c21 [Compound 1.062] | 4 (4=61-80%) | 1 (1=0-20%) | 1 (1=0-20%) | 1 (1=0-20%) | 1 (1=0-20%) | 3 (3=41-60%) | 1 (1=0-20%) | 2 (2=21-40%) | 2 (2=21-40%) | 4 (4=61-80%)
10 | FC(F)Cn1nc(Cl)c2cccc(Oc3ncc(Cl)cn3)c21 [Compound 1.063] | 2 (2=21-40%) | 2 (2=21-40%) | 1 (1=0-20%) | 2 (2=21-40%) | 2 (2=21-40%) | 4 (4=61-80%) | 2 (2=21-40%) | 2 (2=21-40%) | 3 (3=41-60%) | 3 (3=41-60%)
11 | C=C(C)Cn1nc(Cl)c2cccc(Oc3ncc(Cl)cn3)c21 [Compound 1.064] | 1 (1=0-20%) | 1 (1=0-20%) | 1 (1=0-20%) | 1 (1=0-20%) | 1 (1=0-20%) | 2 (2=21-40%) | 1 (1=0-20%) | 1 (1=0-20%) | 2 (2=21-40%) | 1 (1=0-20%)
12 | C=CCn1nc(Cl)c2cccc(Oc3ncc(Cl)cn3)c21 [Compound 1.065] | 4 (4=61-80%) | 2 (2=21-40%) | 1 (1=0-20%) | 2 (2=21-40%) | 2 (2=21-40%) | 4 (4=61-80%) | 2 (2=21-40%) | 3 (3=41-60%) | 2 (2=21-40%) | 2 (2=21-40%)
13 | CC(C)=CCCn1nc(Cl)c2cccc(Oc3ncc(Cl)cn3)c21 [Compound 1.066] | 5 (5=81-100%) | 2 (2=21-40%) | 1 (1=0-20%) | 3 (3=41-60%) | 2 (2=21-40%) | 4 (4=61-80%) | 3 (3=41-60%) | 4 (4=61-80%) | 4 (4=61-80%) | 3 (3=41-60%)
14 | CC(C)=CCn1nc(Cl)c2cccc(Oc3ncc(Cl)cn3)c21 [Compound 1.067] | 4 (4=61-80%) | 2 (2=21-40%) | 1 (1=0-20%) | 3 (3=41-60%) | 2 (2=21-40%) | 4 (4=61-80%) | 3 (3=41-60%) | 3 (3=41-60%) | 3 (3=41-60%) | 3 (3=41-60%)
